This note sets out measurements from ChEMBL document CHEMBL4257501, “Discovery of novel picolinamide-based derivatives as novel VEGFR-2 kinase inhibitors: synthesis, in vitro biological evaluation and molecular docking” (Medchemcomm, 2018).

As a reminder, the IC50 is the concentration needed to halve the response being measured.

The subject of one assay is A549. Nature of the assay: Antiproliferative activity against VEGF-stimulated human A549 cells after 48 hrs by CCK8 assay. Type of assay: functional, cell-based. The conditions noted are these: A549, 48 h.
The nature of assay [1]: Selectivity ratio of IC50 for VEGF-stimulated human HepG2 cells to IC50 for VEGF-stimulated human A549 cells. The assay is classed as functional.
The next assay relates to HepG2. Put plainly: Antiproliferative activity against VEGF-stimulated human HepG2 cells after 48 hrs by CCK8 assay. The assay is classed as functional, cell-based. The conditions noted are these: HepG2, 48 h. In general terms: Formazan colour is commonly taken as a measure of viable cells.
Assay [2] has as its target Vascular endothelial growth factor receptor 2 (Homo sapiens, UniProt P35968). Put plainly: biochemical. Type of assay: cell-based, Sf9.
Description: Inhibition of recombinant human N-terminal GST-tagged VEGFR2 (789 to end residues) expressed in baculovirus infected Sf9 insect cells using Poly (4:1 Glu,Tyr) as substrate measured after 1 hr by ADP-Glo kinase assay

Chain of Vascular endothelial growth factor receptor 2 (P35968 whole entry): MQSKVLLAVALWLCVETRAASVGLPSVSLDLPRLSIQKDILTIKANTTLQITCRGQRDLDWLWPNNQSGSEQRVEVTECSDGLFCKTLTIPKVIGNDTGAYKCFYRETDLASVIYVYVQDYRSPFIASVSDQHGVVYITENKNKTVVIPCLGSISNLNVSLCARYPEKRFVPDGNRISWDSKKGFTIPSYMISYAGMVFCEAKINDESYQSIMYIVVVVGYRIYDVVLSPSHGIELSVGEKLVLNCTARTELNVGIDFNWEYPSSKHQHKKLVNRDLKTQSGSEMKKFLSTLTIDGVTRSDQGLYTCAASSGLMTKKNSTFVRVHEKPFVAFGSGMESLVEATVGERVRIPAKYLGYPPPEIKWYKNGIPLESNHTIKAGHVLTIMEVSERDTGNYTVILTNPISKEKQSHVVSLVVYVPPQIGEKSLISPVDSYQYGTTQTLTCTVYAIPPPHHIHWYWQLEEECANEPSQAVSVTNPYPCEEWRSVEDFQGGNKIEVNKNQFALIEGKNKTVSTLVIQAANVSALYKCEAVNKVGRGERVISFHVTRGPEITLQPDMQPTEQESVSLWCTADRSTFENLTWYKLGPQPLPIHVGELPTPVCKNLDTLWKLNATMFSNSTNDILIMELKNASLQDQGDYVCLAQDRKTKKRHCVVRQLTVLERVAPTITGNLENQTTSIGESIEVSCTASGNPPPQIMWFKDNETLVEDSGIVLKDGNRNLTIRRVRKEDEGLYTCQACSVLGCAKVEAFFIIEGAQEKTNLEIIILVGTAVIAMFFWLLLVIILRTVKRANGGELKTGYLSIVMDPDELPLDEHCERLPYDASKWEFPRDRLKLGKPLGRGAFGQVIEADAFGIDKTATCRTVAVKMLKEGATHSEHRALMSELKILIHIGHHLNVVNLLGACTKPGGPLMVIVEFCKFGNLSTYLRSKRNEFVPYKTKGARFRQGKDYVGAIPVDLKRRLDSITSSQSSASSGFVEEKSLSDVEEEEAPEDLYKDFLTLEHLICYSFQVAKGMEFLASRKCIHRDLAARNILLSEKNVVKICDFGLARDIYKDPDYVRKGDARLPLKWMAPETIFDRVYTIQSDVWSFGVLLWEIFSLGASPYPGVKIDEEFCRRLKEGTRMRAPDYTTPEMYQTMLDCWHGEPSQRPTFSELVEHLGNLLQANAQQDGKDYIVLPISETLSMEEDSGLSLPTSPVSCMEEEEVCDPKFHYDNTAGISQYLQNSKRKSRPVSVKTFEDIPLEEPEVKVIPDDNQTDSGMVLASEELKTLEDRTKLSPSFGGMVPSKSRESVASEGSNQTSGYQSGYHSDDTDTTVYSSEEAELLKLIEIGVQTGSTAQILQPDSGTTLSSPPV

Take `O=C(c1cc(Oc2ccc(/C=C/c3ccncc3)cc2)ccn1)N1CCCC1`: the IC50 with A549 worked out at 18.6 µM; with HepG2, 41.6 µM. Also, the “Ratio IC50” value in assay [1] worked out at 2.2.
As for `CC(C)NC(=O)c1cc(Oc2ccc(/C=C/c3ccncc3)cc2)ccn1`, the values for the IC50 in the assay on A549 and in the assay on HepG2 were 20.6 µM and 33.7 µM, respectively. Further, in assay [1], the “Ratio IC50” value was determined as 1.6.
On to `COc1ccc(CNC(=O)c2cc(Oc3ccc(/C=C/c4ccccn4)cc3)ccn2)cc1`, for which the values for the IC50 in the assay with A549 and in the assay with HepG2 were 63.6 µM and 26 µM, respectively. Also, the “Ratio IC50” value in assay [1] was found to be 0.4.
Taken in the same sequence, the figures for `COc1ccc(CNC(=O)c2cc(Oc3ccc(/C=C/c4ccncc4)cc3)ccn2)cc1` were 19.3 µM, more than 100 µM and more than 5.2.
Taken in the same sequence, the figures for `O=C(NC1CC1)c1cc(Oc2ccc(/C=C/c3ccccn3)cc2)ccn1` were 17.3 µM, 31 µM and 1.8.
As to `O=C(NCc1ccccc1)c1cc(Oc2ccc(/C=C/c3ccncc3)cc2)ccn1`, the IC50 in the assay on A549 worked out at 17 µM; in the assay with HepG2, 28.9 µM. Further, the “Ratio IC50” value in assay [1] was 1.7.
With `O=C(Nc1ccccc1)c1cc(Oc2ccc(/C=C/c3ccccn3)cc2)ccn1`, the values for the IC50 with A549 and in the assay on HepG2 were 19.1 µM and 30.2 µM, respectively. Also, the “Ratio IC50” value in assay [1] is on record as 1.6.
In the case of `O=C(Nc1ccccc1)c1cc(Oc2ccc(/C=C/c3ccncc3)cc2)ccn1`, the values for the IC50 with A549 and in the assay on HepG2 were 79.7 µM and more than 100 µM, respectively. In assay [1], the “Ratio IC50” value is on record as more than 1.2.
Taken in the same sequence, the figures for `O=C(Nc1ccc(Cl)cc1)c1cc(Oc2ccc(/C=C/c3ccncc3)cc2)ccn1` were 62.1 µM, 56.2 µM and 0.9.
As to `O=C(NCc1ccc(F)cc1)c1cc(Oc2ccc(/C=C/c3ccncc3)cc2)ccn1`, the IC50 amounted to 18.2 µM in the assay with A549 and 37.2 µM in the assay on HepG2. The “Ratio IC50” value in assay [1] was 2.
With `O=C(NC1CCCCC1)c1cc(Oc2ccc(/C=C/c3ccncc3)cc2)ccn1`, the results for the IC50 (in the assay on A549; in assay [2]; in the assay on HepG2) were 16.8 µM, 1.22 µM and 22.4 µM, respectively. The “Ratio IC50” value in assay [1] is listed as 1.3.
For the compound `O=C(c1cc(Oc2ccc(/C=C/c3ccccn3)cc2)ccn1)N1CCCC1`, the IC50 is 15.6 µM with A549 and 27 µM in the assay with HepG2. In assay [1], the “Ratio IC50” value stood at 1.7.
`COc1ccc(NC(=O)c2cc(Oc3ccc(/C=C/c4ccncc4)cc3)ccn2)cc1`: the IC50 in the assay with A549 was 25.6 µM; in the assay on HepG2 it was more than 100 µM. The “Ratio IC50” value in assay [1] is listed as more than 3.9.
Taken in the same sequence, the figures for `O=C(NCc1ccccc1)c1cc(Oc2ccc(/C=C/c3ccccn3)cc2)ccn1` were 18.8 µM, 27.9 µM and 1.5.
On to `CC(C)NC(=O)c1cc(Oc2ccc(/C=C/c3ccccn3)cc2)ccn1`, for which the IC50 in the assay with A549 is 21.4 µM; with HepG2 it was more than 100 µM. The “Ratio IC50” value in assay [1] is more than 4.7.
In the case of `CNC(=O)c1cc(Oc2ccc(NC(=O)Nc3ccc(Cl)c(C(F)(F)F)c3)cc2)ccn1` [SORAFENIB], the IC50 was found to be 19.3 µM in the assay with A549 and 29 µM in the assay with HepG2.
On to `COc1ccc(NC(=O)c2cc(Oc3ccc(/C=C/c4ccccn4)cc3)ccn2)cc1`, for which the IC50 with A549 was 20 µM; with HepG2, 30 µM. Also, the “Ratio IC50” value in assay [1] came out at 1.5.
With `O=C(NCc1ccc(F)cc1)c1cc(Oc2ccc(/C=C/c3ccccn3)cc2)ccn1`, the results for the IC50 in the assay on A549 and with HepG2 were more than 100 µM and 45.1 µM, respectively. Also, in assay [1], the “Ratio IC50” value is listed as less than 0.5.
Regarding `O=C(NC1CCCCC1)c1cc(Oc2ccc(/C=C/c3ccccn3)cc2)ccn1`, the IC50 was 12.5 µM in the assay on A549, 0.53 µM in assay [2] and 20.6 µM with HepG2. In addition, the “Ratio IC50” value in assay [1] is reported as 1.6.
Taken in the same sequence, the figures for `CNC(=O)c1cc(Oc2ccc(/C=C/c3ccccn3)cc2)ccn1` were 17.4 µM, 0.87 µM, 21.6 µM and 1.2.
For the compound `O=C(NC1CC1)c1cc(Oc2ccc(/C=C/c3ccncc3)cc2)ccn1`, the IC50 in the assay with A549 turned out to be 35.5 µM; with HepG2, 77.5 µM. Besides, the “Ratio IC50” value in assay [1] came to 2.2.
Taken in the same sequence, the figures for `O=C(Nc1ccc(Cl)cc1)c1cc(Oc2ccc(/C=C/c3ccccn3)cc2)ccn1` were 16.2 µM, 31.3 µM and 1.9.
For `CNC(=O)c1cc(Oc2ccc(/C=C/c3ccncc3)cc2)ccn1`, the IC50 is 13.2 µM in the assay on A549, 0.29 µM in assay [2] and 18.2 µM with HepG2. Moreover, the “Ratio IC50” value in assay [1] is 1.4.
